This is an account of results in ChEMBL document CHEMBL5149996, “Structure-Based Optimization and Discovery of M3258, a Specific Inhibitor of the Immunoproteasome Subunit LMP7 (β5i)” (J Med Chem, 2021).

For assay [1], the target named is T1, Proteasome subunit beta type-8 (Homo sapiens, UniProt P28062).
T1 sequence (P28062 whole entry): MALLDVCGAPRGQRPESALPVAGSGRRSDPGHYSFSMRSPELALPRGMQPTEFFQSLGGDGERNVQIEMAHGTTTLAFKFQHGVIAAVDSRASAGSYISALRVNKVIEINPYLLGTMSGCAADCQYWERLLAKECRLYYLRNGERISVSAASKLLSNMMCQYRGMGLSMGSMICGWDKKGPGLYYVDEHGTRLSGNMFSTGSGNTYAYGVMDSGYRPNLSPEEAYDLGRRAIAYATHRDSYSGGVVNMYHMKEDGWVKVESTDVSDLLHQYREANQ
Kind of assay: Inhibition of human 20S immunoproteasome beta-5i subunit using Suc-LLVY-AMC as substrate preincubated for 2 hrs followed by substrate addition and measured after 1 hr by fluorescence intensity assay.

In assay [2] the target is T2, Proteasome Macropain subunit MB1 (Homo sapiens, UniProt P28074).
T2 sequence (P28074 whole entry): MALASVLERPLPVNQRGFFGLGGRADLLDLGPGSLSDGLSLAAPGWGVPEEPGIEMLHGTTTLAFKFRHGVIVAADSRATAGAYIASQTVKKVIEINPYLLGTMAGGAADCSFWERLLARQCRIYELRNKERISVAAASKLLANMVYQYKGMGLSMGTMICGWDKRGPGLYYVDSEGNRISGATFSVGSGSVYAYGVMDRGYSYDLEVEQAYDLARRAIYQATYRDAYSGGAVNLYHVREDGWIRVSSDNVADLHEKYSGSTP
Put plainly: Inhibition of human 20S proteasome beta5 subunit using Suc-LLVY-AMC as substrate preincubated for 2 hrs followed by substrate addition and measured after 1 hr by fluorescence intensity assay.

Assay [3] is filed under the species Homo sapiens. Kind of assay: Selectivity ratio of IC50 for inhibition of human 20S proteasome beta5 subunit to IC50 for inhibition of human 20S immunoproteasome beta-5i subunit.
Assay [4] has as its target T2, Proteasome Macropain subunit MB1. Put plainly: Inhibition of 20S proteasome beta5 subunit in human A549 cells using Suc-LLVY-luciferin substrate preincubated for 2 hrs followed by substrate addition and measured after 30 mins by luminometric analysis. The assay is classed as cell-based.
Assay [5] concerns the target T1, Proteasome subunit beta type-8. Kind of assay: Inhibition of 20S immunoproteasome beta-5i subunit in human PBMC using Ac-ANW-luciferin substrate preincubated for 2 hrs followed by substrate addition and measured after 30 mins by luminometric analysis. The assay is classed as cell-based.
For assay [6], the species on record is Homo sapiens. Kind of assay: Selectivity ratio of IC50 for inhibition of 20S proteasome beta5 subunit in human A549 cells to IC50 for inhibition of 20S immunoproteasome beta-5i subunit in human PBMC. It is filed as cell-based.

As a reminder, the IC50 is the concentration that gives 50% inhibition. A higher IC50 goes with weaker potency in that assay. Turning to `O=C(Cn1cccn1)N[C@@H](Cc1coc2ccccc12)B(O)O`, the IC50 came out at 3.7 nM in assay [1], 770 nM in assay [2], 894 nM in assay [4] and 31 nM in assay [5]. Moreover, the Ratio IC50 was found to be 212 in assay [3] and 29 in assay [6].

On to `O=C(Cc1ccccc1)N[C@@H](Cc1coc2c(Cl)cccc12)B(O)O`, for which the IC50 in assay [1] is 4.1 nM; in assay [2], 860 nM; in assay [4] it was 2060 nM; in assay [5] it was 41.5 nM. The Ratio IC50 in assay [3] is 210; in assay [6] it was 49.

For the molecule `O=C(Cc1cnccn1)N[C@@H](Cc1coc2ccccc12)B(O)O`, the IC50 in assay [1] was 1.9 nM; in assay [2], 410 nM; in assay [4], 328 nM; in assay [5], 18 nM. Moreover, the Ratio IC50 in assay [3] worked out at 212; in assay [6], 18.

`Cc1ccc(C[C@@H](NC(=O)Cc2ccccc2)B(O)O)cc1C`: the IC50 is 1200 nM in assay [1], over 30000 nM in assay [2], 5900 nM in assay [4] and 1410 nM in assay [5]. The Ratio IC50 in assay [3] is over 25; in assay [6] it was 4.2.

Consider `Cc1cccc2c(C[C@H](NC(=O)Cc3ccccc3)B(O)O)coc12`, for which the IC50 in assay [1] came to 4.5 nM; in assay [2], 1200 nM; in assay [4], 2100 nM; in assay [5], 29 nM. Moreover, the Ratio IC50 is 276 in assay [3] and 71 in assay [6].

On to `O=C(N[C@@H](Cc1coc2ccccc12)B(O)O)[C@@H]1C[C@@H]2CC[C@H]1O2`, for which the IC50 in assay [1] amounted to 89 nM; in assay [2] it was 15000 nM. Moreover, the Ratio IC50 in assay [3] came out at 173.

On to `COc1cccc2c(C[C@H](NC(=O)Cc3ccccc3)B(O)O)coc12`, for which the IC50 in assay [1] was determined as 2.2 nM; in assay [2] it was 140 nM; in assay [4] it was 222 nM; in assay [5] it was 8.9 nM. The Ratio IC50 in assay [3] was 63; in assay [6], 24.

Take `COCC(=O)N[C@@H](Cc1coc2ccccc12)B(O)O`: the IC50 came out at 6 nM in assay [1], 820 nM in assay [2], 520 nM in assay [4] and 26.7 nM in assay [5]. Moreover, the Ratio IC50 in assay [3] is 137; in assay [6], 20.

In the case of `Cc1cccc2c1OC[C@H]2C[C@H](NC(=O)Cc1ccccc1)B(O)O`, the IC50 in assay [1] worked out at 3.1 nM; in assay [2] it was 7200 nM; in assay [4], 14000 nM; in assay [5], 53 nM. The Ratio IC50 in assay [3] amounted to 2330; in assay [6] it was 262.

For `CC(=O)N[C@@H](Cc1coc2ccccc12)B(O)O`, the IC50 is 18 nM in assay [1], 1400 nM in assay [2], 420 nM in assay [4] and 27.1 nM in assay [5]. Further, the Ratio IC50 in assay [3] turned out to be 70; in assay [6], 16.

With `N#Cc1ccccc1CC(=O)N[C@@H](Cc1coc2ccccc12)B(O)O`, the IC50 was found to be 5.2 nM in assay [1], 1700 nM in assay [2], 2220 nM in assay [4] and 42 nM in assay [5]. Besides, the Ratio IC50 in assay [3] stood at 334; in assay [6], 52.

In the case of `Cc1ccc(C[C@H](NC(=O)Cc2ccccc2)B(O)O)cc1`, the IC50 in assay [1] came to 91 nM; in assay [2] it was 6300 nM; in assay [4], 6290 nM; in assay [5], 438 nM. Moreover, the Ratio IC50 was found to be 69 in assay [3] and 14 in assay [6].

Take `O=C(Cc1ccccc1)N[C@@H](C[C@H]1COc2c(Cl)cccc21)B(O)O`: the IC50 in assay [1] was 610 nM; in assay [2], over 30000 nM; in assay [4] it was over 30000 nM; in assay [5] it was 9670 nM. Moreover, in assay [3], the Ratio IC50 is over 49.

In the case of `Cc1c(Cl)ccc2c(C[C@H](NC(=O)Cc3ccccc3)B(O)O)coc12`, the IC50 in assay [1] worked out at 6.4 nM; in assay [2], 1700 nM; in assay [4], 7320 nM; in assay [5], 164 nM. Besides, the Ratio IC50 stood at 272 in assay [3] and 44 in assay [6].

Regarding `O=C(Cc1ccccc1)N[C@@H](Cc1coc2c(F)cccc12)B(O)O`, the IC50 is 3.1 nM in assay [1], 530 nM in assay [2], 785 nM in assay [4] and 22.8 nM in assay [5]. The Ratio IC50 is 168 in assay [3] and 34 in assay [6].

`O=C(Cc1ccncc1)N[C@@H](Cc1coc2ccccc12)B(O)O`: the IC50 in assay [1] amounted to 11 nM; in assay [2], 2300 nM; in assay [4] it was 2540 nM; in assay [5], 71 nM. The Ratio IC50 in assay [3] was determined as 222; in assay [6], 36.

As to `CC(C)C[C@H](NC(=O)Cc1ccccc1)B(O)O`, the IC50 in assay [1] amounted to 1000 nM; in assay [2], 15000 nM; in assay [4], 7000 nM; in assay [5], 3300 nM. Besides, the Ratio IC50 stood at 15 in assay [3] and 2.1 in assay [6].

Consider `O=C(Cc1ccccc1)N[C@@H](Cc1cc2ccccc2o1)B(O)O`, for which the IC50 in assay [1] came out at 29 nM; in assay [2], 5000 nM; in assay [4], 10100 nM; in assay [5], 824 nM. For the same molecule, the results for the Ratio IC50 in assay [3] and in assay [6] were 172 and 12, respectively.

Take `O=C(Cc1ccccc1)N[C@@H](C[C@@H]1COc2c(Cl)cccc21)B(O)O`: the IC50 in assay [1] amounted to 1.8 nM; in assay [2], 2900 nM; in assay [4], 6100 nM; in assay [5], 25 nM. For the same molecule, the Ratio IC50 in assay [3] stood at 1620; in assay [6], 243.

In the case of `O=C(N[C@@H](Cc1coc2ccccc12)B(O)O)[C@H]1C[C@H]2CC[C@@H]1O2`, the IC50 is 140 nM in assay [1] and over 30000 nM in assay [2]. Further, the Ratio IC50 in assay [3] is over 210.

On to `Cc1ccc(C[C@H](NC(=O)Cc2ccccc2)B(O)O)cc1C`, for which the IC50 in assay [1] was 85 nM; in assay [2], 15000 nM; in assay [4] it was 24500 nM; in assay [5], 434 nM. For the same molecule, the Ratio IC50 in assay [3] came to 182; in assay [6], 56.

On to `O=C(Cc1cccnc1)N[C@@H](Cc1coc2ccccc12)B(O)O`, for which the IC50 in assay [1] worked out at 2.3 nM; in assay [2], 540 nM; in assay [4], 646 nM; in assay [5] it was 24.7 nM. For the same molecule, the Ratio IC50 worked out at 232 in assay [3] and 26 in assay [6].

Turning to `O=C(Cc1ccccc1)N[C@@H](Cc1c(Cl)oc2ccccc12)B(O)O`, the IC50 in assay [1] is 200 nM; in assay [2], 20000 nM; in assay [4], 16500 nM; in assay [5], 824 nM. The Ratio IC50 in assay [3] amounted to 104.

With `O=C(Cc1ccccc1)N[C@@H](Cc1ccccc1)B(O)O`, the IC50 in assay [1] is 160 nM; in assay [2], 16000 nM; in assay [4], 9560 nM; in assay [5], 643 nM. In addition, the Ratio IC50 in assay [3] amounted to 99; in assay [6] it was 15.

For the molecule `N#Cc1ccccc1CC(=O)N[C@@H](C[C@@H]1COc2c(Cl)cccc21)B(O)O`, the IC50 in assay [1] came out at 2.9 nM; in assay [2], 7400 nM; in assay [4], 20900 nM; in assay [5], 51 nM. Besides, the Ratio IC50 in assay [3] was 2570; in assay [6] it was 406.
